Experimental findings from patent US20230146675A1, “PYRIMIDO[5,4-d]PYRIMIDINE DERIVATIVES AS ENT INHIBITORS FOR THE TREATMENT OF CANCERS, AND COMBINATION THEREOF WITH ADENOSINE RECEPTOR ANTAGONISTS” (ITEOS BELGIUM SA, priority 2020, published 2023) are described below.

SMILES strings stand for the structures.

The target of one test is T1, human ENT1 (Homo sapiens, UniProt Q99808).
T1 sequence (Q99808 1-456): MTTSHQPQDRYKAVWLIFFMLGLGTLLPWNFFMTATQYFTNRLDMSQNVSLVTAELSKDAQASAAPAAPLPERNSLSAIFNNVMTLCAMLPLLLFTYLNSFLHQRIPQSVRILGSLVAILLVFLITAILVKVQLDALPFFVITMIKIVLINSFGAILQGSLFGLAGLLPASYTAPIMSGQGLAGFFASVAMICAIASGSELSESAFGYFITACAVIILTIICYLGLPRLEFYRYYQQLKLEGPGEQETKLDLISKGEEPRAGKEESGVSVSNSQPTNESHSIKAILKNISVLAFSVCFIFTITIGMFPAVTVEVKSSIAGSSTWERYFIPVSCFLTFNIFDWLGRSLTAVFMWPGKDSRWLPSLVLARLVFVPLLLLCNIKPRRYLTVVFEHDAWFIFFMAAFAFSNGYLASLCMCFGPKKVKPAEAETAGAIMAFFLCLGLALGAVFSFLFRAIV
Briefly: Uridine transport inhibition assay (3H-uridine uptake, MDCKII-ENT1-LV cells). The note with it: 3H-uridine (1 μM), 1 min at 25° C. The test is classed as cell-based. The source says:
Purpose. The aim of this study was to determine the potency of equilibrative nucleoside transporter 1 (ENT1) inhibitors by measuring ENT1-mediated transport is the cellular uptake assay. The human ENT1 transporter can be stably expressed in Madin-Darby Canine Kidney II (MDCKII) cells via transduction. Uridine is efficiently transported by ENT1 and is used as probe in the assay as 3H-uridine. The interaction is detected as the modulation of the initial rate of 3H-uridine transport by human ENT1 into MDCKII-ENT1-LV cells stably expressing ENT1 uptake transporter.
Compound `COCCN(CCOC)c1nc(N2CCC(OC)CC2)c2nc(N(CCOC)CCOC)nc(N(C)Cc3cccc(OC)c3)c2n1` [Compound 171, N4-(3-methoxybenzyl)-N2,N2,N6,N6-tetrakis(2-methoxyethyl)-8-(4-methoxypiperidin-1-yl)-N4-methylpyrimido[5,4-d]pyrimidine-2,4,6-triamine] had an IC50 below 100 nM.

The subject of the next test is stimulated primary human T cells. Put plainly: T cell proliferation assay (rescue of proliferation in presence of 100 uM ATP). The settings on record: Condition A: X-VIVO15, read-out: TCell proliferation (Condition A) IC50. Type of test: cell-based. As for the experimental part:
Purpose. The aim of this study was to determine the potency of equilibrative nucleoside transporter 1 (ENT1) inhibitors to rescue proliferation by stimulated primary human T cells incubated in the presence of 100 uM Adenosine triphosphate (ATP) with: • Condition A: X-VIVO15 • Condition B: X-VIVO15, 2% Human Serum Albumine (HSA) and 0.1% α-1-Acid Glycoprotein (AAG)
Method. Cryopreserved purified human CD3+ T cells were thawed and washed twice with RPMI1640 medium, UltraGlutamine containing 10% hiFBS.
Cells were suspended in PBS containing 10% hiFBS. Cells were stained with CFSE by adding 2 μM solution in PBS, to get a final 1 μM CFSE solution. Cells were incubated while rotating for 5 minutes. Reaction was stopped by adding PBS with 10% FBS and cells were centrifuged for 5 minutes at 1500 rpm.
Cells were resuspended at 1.6×10^6 cells/mL, either in X-VIVO15 medium or in 4% Human Serum Albumin and 0.2% α-1-Acid Glycoprotein. 50 μL of cell suspension (8×10^4 T cells) was added to wells of sterile round-bottom 96-well plates. Cells were activated by adding 50 μL of anti-CD3 anti-CD28 coated microbeads, suspended either in XVIVO-15 medium or in 4% HSA and 0.2% α-1-Acid Glycoprotein, at a ratio of one microbead per two cells.
Serial dilutions of the ENT1 inhibitors were prepared in X-VIVO15 from 10 mM stock solutions in DMSO, and 50 μL was added to the wells.
ATP powder was diluted in X-VIVO15, and 50 μL of this compound was added to the wells to reach a final assay concentration of 100 μM. Final volume of 200 μL.
The experiments were also performed in 384 well plates—all volumes reduced by a factor of 4 ([…]) with a final volume of 50 μL.
Experiments were performed in duplicate. The cells were placed in a 37° C. humidified tissue culture incubator with 5% CO2 for 72 hours for 96 well plates, 96 hours for 384 well plates. After 72 or 96 hours, proliferation was measured determined by CFSE dilution via flow cytometry.
Results. Compounds of the invention have good ENT1 inhibitory properties.
Consider `COCCN(CCOC)c1nc(N2CCC(OC)CC2)c2nc(N(CCOC)CCOC)nc(N(C)Cc3cccc(OC)c3)c2n1` [Compound 171, N4-(3-methoxybenzyl)-N2,N2,N6,N6-tetrakis(2-methoxyethyl)-8-(4-methoxypiperidin-1-yl)-N4-methylpyrimido[5,4-d]pyrimidine-2,4,6-triamine], for which the IC50 lay within 100 to 500 nM.

The test is the same for the next values; noted with them: Condition B: X-VIVO15, 2% HSA and 0.1% AAG, read-out: TCell proliferation (Condition B) IC50.
As to `COCCN(CCOC)c1nc(N2CCC(OC)CC2)c2nc(N(CCOC)CCOC)nc(N(C)Cc3cccc(OC)c3)c2n1` [Compound 171, N4-(3-methoxybenzyl)-N2,N2,N6,N6-tetrakis(2-methoxyethyl)-8-(4-methoxypiperidin-1-yl)-N4-methylpyrimido[5,4-d]pyrimidine-2,4,6-triamine], the IC50 lay within 100 to 500 nM.

For a further test, the target named is T1, human ENT1. Briefly: ENT1 binding assay (competition with Sahenta-DY647 on JAR cells). Details: JAR cells expressing ENT1 were bought from ATCC; host or cells: JAR cells. The settings on record: binned IC50. In short, it runs like this: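 JAR cells were incubated with test compounds and the fluorescent ligand Sahenta-DY647 in competition. Plates were washed twice by centrifugation (4 min, 400 rcf, 4 °C). Binding potency was derived from the final fluorescence.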
Compound `COCCN(CCOC)c1nc(N2CCC(OC)CC2)c2nc(N(CCOC)CCOC)nc(N(C)Cc3cccc(OC)c3)c2n1` [Compound 171, N4-(3-methoxybenzyl)-N2,N2,N6,N6-tetrakis(2-methoxyethyl)-8-(4-methoxypiperidin-1-yl)-N4-methylpyrimido[5,4-d]pyrimidine-2,4,6-triamine] showed an IC50 below 100 nM. Still for that read-out and setting: then `COC(C)CN(CC(C)OC)c1nc(N2CCC(OC)CC2)c2nc(N(CCO)CCO)nc(N3CCN(C)C(=O)C3)c2n1` (stereo not drawn) [Compound 328, 4-(2-(bis(2-hydroxyethyl)amino)-6-(bis(2-methoxypropyl)amino)-8-(4-methoxypiperidin-1-yl)pyrimido[5,4-d]pyrimidin-4-yl)-1-methylpiperazin-2-one], with 100 to 500 nM; and `COCCN(CCOC)c1nc(NCc2cccc(F)c2)c2nc(N(CCO)CCO)nc(N3CCC(OC)CC3)c2n1` [Compound 324, 2,2′-((6-(bis(2-methoxyethyl)amino)-8-((3-lluorobenzyl)amino)-4-(4-methoxypiperidin-1-yl)pyrimido[5,4-d]pyrimidin-2-yl)azanediyl)bis(ethan-1-ol)], with below 100 nM. `COCCN(CCOC)c1nc(N2CCC(OC)CC2)c2nc(N(CCOC)CCOC)nc(N3CCCCC3)c2n1` [Compound 318, N2,N2,N6,N6-tetrakis(2-methoxyethyl)-4-(4-methoxypiperidin-1-yl)-8-(piperidin-1-yl)pyrimido[5,4-d]pyrimidine-2,6-diamine] yielded an IC50 of 500 to 1000 nM. `COCCN(CCOC)c1nc(N2CCN(C)C(=O)C2)c2nc(N3CCn4ncnc4C3)nc(N3CCC(OC)CC3)c2n1` [Compound 283, 4-(2-(bis(2-methoxyethyl)amino)-6-(5,6-dihydro-[1,2,4]triazolo[1,5-a]pyrazin-7(8H)-yl)-8-(4-methoxypiperidin-1-yl)pyrimido[5,4-d]pyrimidin-4-yl)-1-methylpiperazin-2-one] showed an IC50 of 500 to 1000 nM. Still for that read-out and setting: then `COCCN(CCOC)c1nc(N2CCN(c3ncn(C)n3)CC2)c2nc(N(CCOC)CCOC)nc(N3CCN(c4ncn(C)n4)CC3)c2n1` [Compound 131, N2,N2,N6,N6-tetrakis(2-methoxyethyl)-4,8-bis(4-(1-methyl-1H-1,2,4-triazol-3-yl)piperazin-1-yl)pyrimido[5,4-d]pyrimidine-2,6-diamine], with 100 to 500 nM; and `COCCN(CCOC)c1nc(N2CCC(OC)CC2)c2nc(N(CCOC)CCOC)nc(NCc3cccc(S(C)(=O)=O)c3)c2n1` [Compound 148, N2,N2,N6,N6-tetrakis(2-methoxyethyl)-8-(4-methoxypiperidin-1-yl)-N4-(3-(methylsulfonyl)benzyl)pyrimido[5,4-d]pyrimidine-2,4,6-triamine], with 100 to 500 nM. The same measure, in the same setting: for `COCCN(CCOC)c1nc(N2CCc3cc(OC)c(OC)cc3C2)c2nc(N(CCOC)CCOC)nc(N3CCc4cc(OC)c(OC)cc4C3)c2n1` [Compound 4, 4,8-bis(6,7-dimethoxy-3,4-dihydroisoquinolin-2(1H)-yl)-N2,N2,N6,N6-tetrakis(2-methoxyethyl)pyrimido[5,4-d]pyrimidine-2,6-diamine] the value was 100 to 500 nM. As to `COCCN(CCOC)c1nc(N2CCN(C)C(=O)C2)c2nc(N(CCO)CCO)nc(N3CCC(OC)CC3)c2n1` [Compound 271, 4-(6-(bis(2-hydroxyethyl)amino)-2-(bis(2-methoxyethyl)amino)-8-(4-methoxypiperidin-1-yl)pyrimido[5,4-d]pyrimidin-4-yl)-1-methylpiperazin-2-one], the IC50 is 500 to 1000 nM. As to `COCCN(CCOC)c1nc(N2CCN(c3ncn(C)n3)CC2)c2nc(N(CCOC)CCOC)nc(N(C)Cc3cccc(OC)c3)c2n1` [Compound 243, N4-(3-methoxybenzyl)-N2,N2,N6,N6-tetrakis(2-methoxyethyl)-N4-methyl-8-(4-(1-methyl-1H-1,2,4-triazol-3-yl)piperazin-1-yl)pyrimido[5,4-d]pyrimidine-2,4,6-triamine], the IC50 was below 100 nM. Still for that read-out and setting: for `COCCN(CCOC)c1nc(N2CCCCC2)c2nc(N(CCO)CCO)nc(N3CCN(c4nccs4)CC3)c2n1` [Compound 39, 2,2′-((6-(bis(2-methoxyethyl)amino)-8-(piperidin-1-yl)-4-(4-(thiazol-2-yl)piperazin-1-yl)pyrimido[5,4-d]pyrimidin-2-yl)azanediyl)diethanol] the value was below 100 nM. As to `CCOCCN(CCOCC)c1nc(N2CCN(C)C(=O)C2)c2nc(N(CCOCC)CCOCC)nc(N(C)Cc3ccccc3)c2n1` [Compound 232, 4-(8-(benzyl(methyl)amino)-2,6-bis(bis(2-ethoxyethyl)amino)pyrimido[5,4-d]pyrimidin-4-yl)-1-methylpiperazin-2-one], the IC50 was below 100 nM. Regarding `COCCN(CCOC)c1nc(N2CCn3nncc3C2)c2nc(N(CCOC)CCOC)nc(N3CCN(C)C(=O)C3)c2n1` [Compound 251, 4-(2,6-bis(bis(2-methoxyethyl)amino)-8-(6,7-dihydro-[1,2,3]triazolo[1,5-a]pyrazin-5(4H)-yl)pyrimido[5,4-d]pyrimidin-4-yl)-1-methylpiperazin-2-one], the IC50 lay within 100 to 500 nM. Turning to `COCCN(CCOC)c1nc(N2CC(F)C2)c2nc(N(CCOC)CCOC)nc(N3CCC(OC)CC3)c2n1` [Compound 99, 4-(3-fluoroazetidin-1-yl)-N2,N2,N6,N6-tetrakis(2-methoxyethyl)-8-(4-methoxypiperidin-1-yl)pyrimido[5,4-d]pyrimidine-2,6-diamine], the IC50 is 100 to 500 nM. For `COCCN(CCOC)c1nc(N2CC(C)(O)C2)c2nc(N(CCOC)CCOC)nc(N3CCC(OC)CC3)c2n1` [Compound 101, 1-(2,6-bis(bis(2-methoxyethyl)amino)-8-(4-methoxypiperidin-1-yl)pyrimido[5,4-d]pyrimidin-4-yl)-3-methylazetidin-3-ol], the IC50 lay in the range of 500 to 1000 nM. Same read-out and setting: for `COCCCN(CCCOC)c1nc(N2CCC(OC)CC2)c2nc(N(CCCO)CCCO)nc(N3CCC(OC)CC3)c2n1` [Compound 330, 3,3′-((6-(bis(3-methoxypropyl)amino)-4,8-bis(4-methoxypiperidin-1-yl)pyrimido[5,4-d]pyrimidin-2-yl)azanediyl)bis(propan-1-ol)] the value was 100 to 500 nM. Still for that read-out and setting: then `COCCN(CCOC)c1nc(N2CCN(C)C(=O)C2)c2nc(N(CCOC)CCOC)nc(N(C)C)c2n1` [Compound 320, 4-(2,6-bis(bis(2-methoxyethyl)amino)-8-(dimethylamino)pyrimido[5,4-d]pyrimidin-4-yl)-1-methylpiperazin-2-one], with 500 to 1000 nM; and `COCCN(CCOC)c1nc(N2CCC(OC)CC2)c2nc(N(CCOC)CCOC)nc(NCc3cnn(C)c3)c2n1` [Compound 65, N2,N2,N6,N6-tetrakis(2-methoxyethyl)-8-(4-methoxypiperidin-1-yl)-N4-((1-methyl-1H-pyrazol-4-yl)methyl)pyrimido[5,4-d]pyrimidine-2,4,6-triamine], with 500 to 1000 nM.
